Tests used:
[1] = test system: NIH 3T3 fibroblast cells; test: Hydrodynamic stretching deformability of chemically treated NIH 3T3 fibroblasts in the microfluidic system; format: cell-based; conditions: flow rate 10 μl/min, 2 wt % PEO; for mean deformability in the first frame: first frame of the recording cycle (before stretching); for deformability (mean, aspect ratio a/b of the deformed cell): last (15th) frame, CB 150 μM for two hours, fixation 4% formaldehyde for 8 mins
Protocol: On the other hand, an electrical sensing zone is introduced for on-demand single cell imaging. Three electrodes of 20 μm in width, 20 μm intervals are placed before the flow splitting junction, an input voltage of 0.5 V at 5 MHz is applied to the middle electrode and the differential current (Idifferential) is calculated from the two-sided electrodes. The differential configuration can cancel out electrical drifting caused by environmental fluctuation (i.e. flow, temperature, conductivity and pH) and achieve a higher signal-to-noise ratio. As the cell passes through the sensing region, it replaces the conductive medium and causes a change in the electrical current. By that, a pair of opposite peaks is transmitted into an impedance spectroscope. When the peak reaches the trigger level, a trigger signal is generated and fed to the camera. […] Next, for example at a flow rate of 10 μl/min, the camera starts to record 15 frames at a rate of 2,000 frames per second, with an exposure time of 50 μs. The first frame in a recording cycle is used to extract the cell diameter. At this point, the cell remains spherical because it starts to decelerate and is subject to minor stress. In one record cycle, the cell approaches the splitting junction, reaches the channel wall and migrates along the wall for a time span, ensuring the maximum strain is captured at the 15th frame (FIG. 5a). Its aspect ratio evaluates the cell deformability as
where a and b are the length of the long axis and the short axis of the deformed cell, respectively.
(§1) Cytochalasin B (Sigma-Aldrich) treated NIH 3T3 were prepared by incubating cells in 150 μM Cytochalasin B at 37° C. for two hours. After treatment with chemical reagents, cells were washed, centrifuged and resuspended in 2 wt % PEO solution. The viscoelastic solution was prepared by dissolving PEO (Mw=600 kDa, Sigma-Aldrich) powder into DPBS (Thermo Fisher Scientific) with a concentration of 2 wt %.
Samples were continuously introduced into the microfluidic devices using a syringe pump (KD Scientific, Holliston, MA) at a range of flow rates. Simultaneously, the electrical current was received by an impedance spectroscope (HF2IS, Zurich Instruments) and analyzed by a real-time program to send out a trigger signal whenever there was a cell passing through the electrical sensing region. The triggering signal was received by a camera (Photron Inc., San Diego, CA, USA), which started to record 15 frames at a 2,000 frame rate with an exposure time of 50 μs (at a flow rate of 10 μl/min). After the event triggered imaging process was completed, the video was processed offline using a custom-built Python program. […]

[2] = test system: NIH 3T3 fibroblast cells; test: Fluorescence imaging of actin in live NIH 3T3 cell before and after CB treatment; format: cell-based; conditions: NIH 3T3, fluorescence images (actin)
Protocol: (a) Representative fluorescence images (actin, red) of a live cell before (top) and after CB treatment (bottom).
as §1
To test the sensitivity of our system for cellular mechanical phenotyping, we compared the deformability of normal and Cytochalasin B (CB) treated two hours NIH 3T3 fibroblasts. […] In addition, we measured the deformability at a wide flow rate range of 1-30 μl/min. […] This flow rate was then applied to analyze the deformability difference. Furthermore, fixed cells were measured as control of undeformed cells.

SMILES | mean deformability in the first frame [1] | deformability (mean, aspect ratio a/b of the deformed cell) [1] | effect on intracellular F-actin (FIG. 8a) [2]
C=C1[C@@H](C)[C@H]2[C@H](Cc3ccccc3)NC(=O)[C@]23OC(=O)/C=C/[C@H](O)CCC[C@@H](C)C/C=C/[C@H]3[C@@H]1O [CB, Cytochalasin B] | 1.16±0.12 | 1.87±0.23 | intracellular F-actin depolymerization
C=O [formaldehyde] | 1.12±0.06 | 1.29±0.11 | 
